# In patent US8354436B2 (4SC Discovery GmbH, priority 2011, dated 2013):
# pIC50: −log10 of the molar value. Where two headings read alike, the source gives them in different places.
# Columns and labels:
# Format in all cases: cell-based
# Settings in all cases: 48 hours
# [1] = tested on: PBMC from healthy human donors; test: T cell proliferation assay (PHA-stimulated human PBMC, BrdU ELISA)
# Outline: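 Proliferation was quantified by BrdU ELISA 48 hours after starting culture of 1×10⁵ human PBMC per well with test compound and 2 μg/ml phytohaemagglutinin. Cells came from healthy donors via Ficoll separation and were kept in RPMI1640 with 10% dialysed heat-inactivated FCS.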
# [2] = tested on: IFN-γ; test: IFN-γ production by PHA-stimulated human PBMC (OptEIA human IFN-g ELISA)
# Outline: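 Compounds are titrated semilogarithmically for IC50, or tested at 10, 1, 0.1 and 0.01 μM for screening, on healthy-donor PBMC activated with 2 μg/ml PHA. After 48 h, secreted cytokine is measured in supernatant.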
# [3] = tested on: IL-17FF; test: IL-17FF production by PHA-stimulated human PBMC (human IL-17F ELI-Pair)
# Description: Analysis of Proliferation of and Cytokine Production by Human PBMC Stimulated with PHA
# Peripheral blood mononuclear cells (PBMC) from healthy human donors were purified using Accuspin™ System-Histopaque-1077 (Sigma) according to the protocol recommended by the manufacturer. Purified PBMC were then washed twice with phosphate-buffered saline (PBS) and resuspended in RPMI1640 culture medium supplemented with 10% dialyzed heat inactivated fetal calf serum, 1.5 mM L-glutamine, 100 U penicillin/ml, and […] (all from PAN Biotech, Aidenbach, Germany). For stimulation, PBMC were seeded at 1×10^5 cells/well, activated with 2 μg/ml phytohaemagglutinin (PHA, Sigma) and incubated with the test compounds for 48 hours. IL-17A, IL-17F and INF-γ were then determined in the culture supernatant using a Luminex BioPlex system, following the manufacturer's instructions (BioRad, Munich, Germany). For screening, compounds were used at 10, 1, 0.1 and 0.01 μM. To determine the IC50, compounds were titrated semilogarithmically.
# Cytokines were determined in the aforementioned culture supernatant using the following methods: IL-17AA/AF was measured using the Luminex BioPlex system (BioRad, Munich, Germany); IL-17AA using the human homodimer IL-17A ELISA Ready Set Go Kit from eBioscience (Frankfurt, Germany); IL-17FF using the human IL-17F ELI-Pair from Hölzel DiagnosticaGmBH (Köln, Germany); and IFN-γ using the OptEIA human IFN-g ELISA from BD Bioscience (Heidelberg, Germany), all following the manufacturer's instructions.
# [4] = PHA-stimulated human PBMC, column D, read-out: IC50 (Tcell proliferation)
# [5] = PHA-stimulated human PBMC, column C, read-out: IC50 (IFNγ)
# [6] = PHA-stimulated human PBMC, column B, read-out: IC50 (IL-17FF)
# [7] = human PBMC, 2 μg/ml PHA, read-out: D: IC50 (Tcell proliferation)
# [8] = human PBMC, 2 μg/ml PHA, read-out: C: IC50 (IFNγ)
# [9] = human PBMC, 2 μg/ml PHA, read-out: B: IC50 (IL-17FF)
SMILES,"pIC50 [2, 5]","pIC50 [3, 6]","pIC50 [2, 8]","pIC50 [3, 9]","pIC50 [1, 4]","pIC50 [1, 7]"
"CCOC(=O)c1c(-c2onc(-c3c(F)cccc3Cl)c2C(=O)OC)cnn1-c1cccc(F)c1 [Example I-8, methyl 3-(2-chloro-6-fluorophenyl)-5-(5-(ethoxycarbonyl)-1-(3-fluorophenyl)-1H-pyrazol-4-yl)isoxazole-4-carboxylate]",6.00 to 7.00,6.00 to 7.00,,,6.00 to 7.00,
"Fc1cccc(Cl)c1-c1noc(-c2cnn(-c3ccncc3)c2C(F)(F)F)c1-c1ccoc1 [Example B-24, 3-(2-chloro-6-fluorophenyl)-4-(furan-3-yl)-5-(1-(pyridin-4-yl)-5-(trifluoromethyl)-1H-pyrazol-4-yl)isoxazole]",,,7.00 to 8.00,7.00 to 8.00,,7.00 to 8.00
"Cc1nnc(-c2c(-c3c(F)cccc3Cl)noc2-c2cnn(-c3cccc(S(N)(=O)=O)c3)c2C(F)(F)F)s1 [Example B-23, 3-(4-(3-(2-chloro-6-fluorophenyl)-4-(5-methyl-1,3,4-thiadiazol-2-yl)isoxazol-5-yl)-5-(trifluoromethyl)-1H-pyrazol-1-yl)benzenesulfonamide]",,,5.00 to 6.00,5.00 to 6.00,,5.00 to 6.00
"O=C(c1c(-c2c(F)cccc2Cl)noc1-c1cnn(-c2ccccc2F)c1C(F)(F)F)N1CCOCC1 [Example I-16, (3-(2-chloro-6-fluorophenyl)-5-(1-(2-fluorophenyl)-5-(trifluoromethyl)-1H-pyrazol-4-yl)isoxazol-4-yl)(morpholino)methanone]",6.00 to 7.00,6.00 to 7.00,,,5.00 to 6.00,
"CCOC(=O)c1c(-c2onc(-c3c(F)cccc3Cl)c2C(=O)OC)cnn1-c1ccc(F)cc1 [Example I-26, methyl 3-(2-chloro-6-fluorophenyl)-5-(5-(ethoxycarbonyl)-1-(4-fluorophenyl)-1H-pyrazol-4-yl)isoxazole-4-carboxylate]",5.00 to 6.00,5.00 to 6.00,,,5.00 to 6.00,
"CCOC(=O)c1csc(-c2c(-c3c(F)cccc3Cl)noc2-c2cnn(-c3cccc(F)c3)c2C(F)(F)F)n1 [Example B-1, ethyl 2-(3-(2-chloro-6-fluorophenyl)-5-(1-(3-fluorophenyl)-5-(trifluoromethyl)-1H-pyrazol-4-yl)isoxazol-4-yl)thiazole-4-carboxylate]",,,6.00 to 7.00,6.00 to 7.00,,6.00 to 7.00
"CCOC(=O)c1c(-c2onc(-c3c(F)cccc3Cl)c2C(=O)OC)cnn1-c1cccc(C#N)c1 [Example I-13, methyl 3-(2-chloro-6-fluorophenyl)-5-(1-(3-cyanophenyl)-5-(ethoxycarbonyl)-1H-pyrazol-4-yl)isoxazole-4-carboxylate]",6.00 to 7.00,6.00 to 7.00,,,6.00 to 7.00,
"CON(C)C(=O)c1c(-c2ccccc2F)noc1-c1cnn(-c2cccc(F)c2)c1C(F)(F)F [Example I-94, 3-(2-fluorophenyl)-5-(1-(3-fluorophenyl)-5-(trifluoromethyl)-1H-pyrazol-4-yl)-N-methoxy-N-methylisoxazole-4-carboxamide]",5.00 to 6.00,5.00 to 6.00,,,5.00 to 6.00,
"CCOC(=O)c1c(-c2c(F)cccc2Cl)noc1-c1cnn(CC2CCCO2)c1C(F)(F)F (stereo not drawn) [IB-96, ethyl 3-(2-chloro-6-fluorophenyl)-5-(1-((tetrahydrofuran-2-yl)methyl)-5-(trifluoromethyl)-1H-pyrazol-4-yl)isoxazole-4-carboxylate]",7.00 to 8.00,7.00 to 8.00,,,7.00 to 8.00,
"Cc1nnc(-c2c(-c3c(F)cccc3Cl)noc2-c2cnn(-c3ccccc3Cl)c2C(F)(F)F)o1 [Example B-18, 2-(3-(2-chloro-6-fluorophenyl)-5-(1-(2-chlorophenyl)-5-(trifluoromethyl)-1H-pyrazol-4-yl)isoxazol-4-yl)-5-methyl-1,3,4-oxadiazole]",,,5.00 to 6.00,5.00 to 6.00,,5.00 to 6.00
"CON(C)C(=O)c1c(-c2ccccc2Cl)noc1-c1cnn(-c2cccc(Cl)c2)c1C(F)(F)F [IB-64, 3-(2-chlorophenyl)-5-(1-(3-chlorophenyl)-5-(trifluoromethyl)-1H-pyrazol-4-yl)-N-methoxy-N-methylisoxazole-4-carboxamide]",6.00 to 7.00,7.00 to 8.00,,,6.00 to 7.00,
"CCOC(=O)c1c(-c2c(Cl)cncc2Cl)noc1-c1cnn(-c2cccc(Cl)c2)c1C(F)(F)F [IB-7, ethyl 5-(1-(3-chlorophenyl)-5-(trifluoromethyl)-1H-pyrazol-4-yl)-3-(3,5-dichloropyridin-4-yl)isoxazole-4-carboxylate]",6.00 to 7.00,5.00 to 6.00,,,5.00 to 6.00,

# Now from value to compound, other results behind:
"pIC50 [2, 5]","pIC50 [3, 6]","pIC50 [2, 8]","pIC50 [3, 9]",SMILES,"pIC50 [1, 4]","pIC50 [1, 7]"
5.00 to 6.00,5.00 to 6.00,,,"CON(C)C(=O)c1c(-c2c(F)cccc2Cl)noc1-c1cnn(-c2ccccc2Cl)c1C(F)(F)F [IB-51, 3-(2-chloro-6-fluorophenyl)-5-(1-(2-chlorophenyl)-5-(trifluoromethyl)-1H-pyrazol-4-yl)-N-methoxy-N-methylisoxazole-4-carboxamide]",5.00 to 6.00,
7.00 to 8.00,7.00 to 8.00,,,"COC(=O)c1c(-c2c(F)cccc2Cl)noc1-c1cnn(CC(F)(F)F)c1C(F)(F)F [Example I-65, methyl 3-(2-chloro-6-fluorophenyl)-5-(1-(2,2,2-trifluoroethyl)-5-(trifluoromethyl)-1H-pyrazol-4-yl)isoxazole-4-carboxylate]",7.00 to 8.00,
7.00 to 8.00,7.00 to 8.00,,,"CCOC(=O)c1c(-c2c(F)cccc2Cl)noc1-c1cnn(-c2ccccc2[N+](=O)[O-])c1C(F)(F)F [IB-95, 3-(2-chloro-6-fluorophenyl)-5-(1-(2-nitrophenyl)-5-(trifluoromethyl)-1H-pyrazol-4-yl)isoxazole-4-carboxylate]",6.00 to 7.00,
5.00 to 6.00,5.00 to 6.00,,,"CNC(=O)c1c(-c2c(F)cccc2Cl)noc1-c1cnn(-c2cccnc2)c1C(F)(F)F [IB-55, 3-(2-chloro-6-fluorophenyl)-N-methyl-5-(1-(pyridin-3-yl)-5-(trifluoromethyl)-1H-pyrazol-4-yl)isoxazole-4-carboxamide]",5.00 to 6.00,
6.00 to 7.00,5.00 to 6.00,,,"COC(=O)c1c(-c2c(F)cccc2Cl)noc1-c1cnn(C(C)C)c1C(F)(F)F [Example I-66, methyl 3-(2-chloro-6-fluorophenyl)-5-(1-isopropyl-5-(trifluoromethyl)-1H-pyrazol-4-yl)isoxazole-4-carboxylate]",5.00 to 6.00,
7.00 to 8.00,7.00 to 8.00,,,COC(=O)c1c(-c2c(F)cccc2Cl)noc1-c1cnn(CC(C)C)c1C(F)(F)F [Example I-28],6.00 to 7.00,
7.00 to 8.00,7.00 to 8.00,,,"COC(=O)c1c(-c2c(F)cccc2Cl)noc1-c1cnn(-c2cccnc2)c1C(F)(F)F [IB-67, methyl 3-(2-chloro-6-fluorophenyl)-5-(1-(pyridin-3-yl)-5-(trifluoromethyl)-1H-pyrazol-4-yl)isoxazole-4-carboxylate]",7.00 to 8.00,
7.00 to 8.00,7.00 to 8.00,,,"CCOC(=O)c1c(-c2ccncc2F)noc1-c1cnn(-c2ccccc2Cl)c1C(F)(F)F [IB-13, ethyl 5-(1-(2-chlorophenyl)-5-(trifluoromethyl)-1H-pyrazol-4-yl)-3-(3-fluoropyridin-4-yl)isoxazole-4-carboxylate]",7.00 to 8.00,
